What was measured:
[1] = target: Prostaglandin G/H synthase 2 (Ovis aries) (UniProt P79208); experiment: Inhibition of Ovis aries (sheep) COX-2 by Chemoiluminescence assay
[2] = target: Prostaglandin G/H synthase 1 (Ovis aries) (UniProt P05979); experiment: Inhibition of Ovis aries (sheep) COX-1 by Chemoiluminescence assay
Ovis aries = organism: Ovis aries; experiment: Selectivity index, ratio of IC50 for Ovis aries (sheep) COX-1 to IC50 for Ovis aries (sheep) COX-2

Chain of Prostaglandin G/H synthase 2 (Ovis aries) (P79208 whole entry, looked up): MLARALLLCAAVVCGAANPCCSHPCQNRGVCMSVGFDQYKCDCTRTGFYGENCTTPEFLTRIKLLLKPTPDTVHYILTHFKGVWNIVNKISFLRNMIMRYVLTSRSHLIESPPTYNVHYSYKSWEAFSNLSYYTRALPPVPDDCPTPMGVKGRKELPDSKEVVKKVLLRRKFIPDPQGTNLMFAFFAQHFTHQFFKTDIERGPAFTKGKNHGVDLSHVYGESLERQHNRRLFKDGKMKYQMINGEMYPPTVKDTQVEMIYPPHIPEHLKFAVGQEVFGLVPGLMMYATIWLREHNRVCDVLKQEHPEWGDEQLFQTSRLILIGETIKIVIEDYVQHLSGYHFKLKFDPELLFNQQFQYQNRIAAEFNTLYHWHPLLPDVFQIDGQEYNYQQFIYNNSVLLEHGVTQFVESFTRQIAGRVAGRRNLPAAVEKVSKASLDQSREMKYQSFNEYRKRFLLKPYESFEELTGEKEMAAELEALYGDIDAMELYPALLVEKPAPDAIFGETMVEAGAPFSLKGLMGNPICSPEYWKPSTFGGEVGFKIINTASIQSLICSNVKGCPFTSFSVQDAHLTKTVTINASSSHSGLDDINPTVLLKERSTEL

| IC50 [1] [nM] | IC50 [2] [nM] | Ratio IC50 (Ovis aries) | Structure (SMILES) |
| --- | --- | --- | --- |
| 320 | > 100000 | > 312 | CS(=O)(=O)c1ccc(C2SCC(=O)N2Cc2ccccc2)cc1 (configuration not stated) |
| 270 | 85900 | 318 | CC1OC(c2ccc(S(C)(=O)=O)cc2)N(Cc2ccccc2)C1=O (racemic) |
| 210 | > 100000 | > 476 | CS(=O)(=O)c1ccc(C2OCC(=O)N2Cc2ccccc2)cc1 (configuration not stated) |
| 340 | 75600 | 222 | CC1SC(c2ccc(S(C)(=O)=O)cc2)N(Cc2ccccc2)C1=O (racemic) |
